# Reference: US11401271B2, “Fused heterocyclic compound, pyrazole-ring-containing fused heterocyclic compound, agricultural composition containing thereof, and method of using the composition” (SOUTH CHINA AGRICULTURAL UNIVERSITY, priority 2017, dated 2022)
# Tested on: Spodoptera exigua
# Assay: whole plant or invertebrate
# Assay type: in vivo
# Conditions: Spodoptera exigua, 24 h, read-out: Spodoptera exigua Mortality (%) 500 ppm
# Summary of the method: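 Leaf immersion feeding: second-instar larvae (about 35 per vessel, triplicate) kept at 28° C on discs treated with 500 ppm test solution in 0.05% Tween-80. Mortality at 24 h, calculated relative to surviving larvae in the solvent control.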
row,Structure (SMILES),mortality at 500 ppm [%]
1,COC(=O)C1(CC#N)Nc2c([S+]([O-])C(F)(F)F)c(C#N)nn2-c2c(Cl)cc(C(F)(F)F)cc21 (stereo not shown) [Compound C31],100
2,N#CCC1(C(N)=O)Nc2c([S+]([O-])C(F)(F)F)c(C#N)nn2-c2c(Cl)cc(C(F)(F)F)cc21 (stereo not shown) [Compound C32],90
3,CNC(=O)C1(CC(=O)OC)Nc2c([S+]([O-])C(F)(F)F)c(C#N)nn2-c2c(Cl)cc(C(F)(F)F)cc21 (stereo not shown) [Compound C35],100
4,N#Cc1nn2c(c1[S+]([O-])C(F)(F)F)NC(CC(=O)O)(C(=O)O)c1cc(C(F)(F)F)cc(Cl)c1-2 (stereo not shown) [Compound C36],90
5,COC(=O)CC1(C(=O)OC)Nc2c([S+]([O-])C(F)(F)F)c(C#N)nn2-c2c(Cl)cc(C(F)(F)F)cc21 (stereo not shown) [Compound C37],100
6,N#Cc1nn2c(c1[S+]([O-])C(F)(F)F)NC(CC(N)=O)(C(N)=O)c1cc(C(F)(F)F)cc(Cl)c1-2 (stereo not shown) [Compound C38],90
7,COC(=O)CC1(C(=O)OC)c2cc(C(F)(F)F)cc(Cl)c2-n2nc(C#N)c([S+]([O-])C(F)(F)F)c2N1C(C)=O (stereo not shown) [Compound C40],95

# Tested on: Bombyx mori L.
# Assay: Toxicity test on 2nd-instar larvae of Bombyx mori L., leaf immersion feeding method
# Assay type: in vivo
# Conditions: 1000 ppm, 24 hours
# Summary of the method: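 Second-instar silkworm larvae (~35 per vessel, 3 replicates) fed mulberry leaves dipped 5 s in 1000 ppm compound (0.05% Tween-80; DMSO stock diluted), held at 25 °C. Deaths counted after 24 hours; mortality % corrected against Tween-80 control survivors.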
row,Structure (SMILES),Toxicity determination Bombyx mori L. Mortality (%)
1,COC(=O)C1(CC#N)Nc2c([S+]([O-])C(F)(F)F)c(C#N)nn2-c2c(Cl)cc(C(F)(F)F)cc21 (stereo not shown) [Compound C31],3
2,N#CCC1(C(N)=O)Nc2c([S+]([O-])C(F)(F)F)c(C#N)nn2-c2c(Cl)cc(C(F)(F)F)cc21 (stereo not shown) [Compound C32],6
3,CNC(=O)C1(CC(=O)OC)Nc2c([S+]([O-])C(F)(F)F)c(C#N)nn2-c2c(Cl)cc(C(F)(F)F)cc21 (stereo not shown) [Compound C35],4
4,N#Cc1nn2c(c1[S+]([O-])C(F)(F)F)NC(CC(=O)O)(C(=O)O)c1cc(C(F)(F)F)cc(Cl)c1-2 (stereo not shown) [Compound C36],2
5,COC(=O)CC1(C(=O)OC)Nc2c([S+]([O-])C(F)(F)F)c(C#N)nn2-c2c(Cl)cc(C(F)(F)F)cc21 (stereo not shown) [Compound C37],6
6,N#Cc1nn2c(c1[S+]([O-])C(F)(F)F)NC(CC(N)=O)(C(N)=O)c1cc(C(F)(F)F)cc(Cl)c1-2 (stereo not shown) [Compound C38],4
7,COC(=O)CC1(C(=O)OC)c2cc(C(F)(F)F)cc(Cl)c2-n2nc(C#N)c([S+]([O-])C(F)(F)F)c2N1C(C)=O (stereo not shown) [Compound C40],4

# Tested on: Plutella xylostella
# Assay: whole plant or invertebrate
# Assay type: in vivo
# Conditions: Plutella xylostella, read-out: Plutella xylostella Mortality (%) 500 ppm
# Summary of the method: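 Leaf immersion feeding test: 2nd-instar larvae (about 35 per vessel, 3 replicates) kept at 28° C. on 1.0 cm cabbage discs soaked 5 s in a 500 ppm solution with 0.05% Tween-80. Mortality after 24 h of exposure, calculated relative to live larvae in the Tween-80 control.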
row,Structure (SMILES),mortality at 500 ppm [%]
1,COC(=O)C1(CC#N)Nc2c([S+]([O-])C(F)(F)F)c(C#N)nn2-c2c(Cl)cc(C(F)(F)F)cc21 (stereo not shown) [Compound C31],100
2,N#CCC1(C(N)=O)Nc2c([S+]([O-])C(F)(F)F)c(C#N)nn2-c2c(Cl)cc(C(F)(F)F)cc21 (stereo not shown) [Compound C32],100
3,CNC(=O)C1(CC(=O)OC)Nc2c([S+]([O-])C(F)(F)F)c(C#N)nn2-c2c(Cl)cc(C(F)(F)F)cc21 (stereo not shown) [Compound C35],100
4,N#Cc1nn2c(c1[S+]([O-])C(F)(F)F)NC(CC(=O)O)(C(=O)O)c1cc(C(F)(F)F)cc(Cl)c1-2 (stereo not shown) [Compound C36],90
5,COC(=O)CC1(C(=O)OC)Nc2c([S+]([O-])C(F)(F)F)c(C#N)nn2-c2c(Cl)cc(C(F)(F)F)cc21 (stereo not shown) [Compound C37],100
6,N#Cc1nn2c(c1[S+]([O-])C(F)(F)F)NC(CC(N)=O)(C(N)=O)c1cc(C(F)(F)F)cc(Cl)c1-2 (stereo not shown) [Compound C38],100
7,COC(=O)CC1(C(=O)OC)c2cc(C(F)(F)F)cc(Cl)c2-n2nc(C#N)c([S+]([O-])C(F)(F)F)c2N1C(C)=O (stereo not shown) [Compound C40],100

# Tested on: Aphis craccivora
# Assay: whole plant or invertebrate
# Assay type: in vivo
# Conditions: Aphis craccivora, 24 h, read-out: Aphis craccivora Mortality (%) 500 ppm
# Summary of the method: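 Mortality scored 24 h after treatment as the reduction in live aphids versus a 0.05% Tween-80 control; three replicates, 23° C. Treatment was a 5 s immersion of wingless adults on bean sprouts in 500 ppm test solution containing 0.05% Tween-80, followed by air-drying.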
row,Structure (SMILES),mortality at 500 ppm [%]
1,COC(=O)C1(CC#N)Nc2c([S+]([O-])C(F)(F)F)c(C#N)nn2-c2c(Cl)cc(C(F)(F)F)cc21 (stereo not shown) [Compound C31],100
2,N#CCC1(C(N)=O)Nc2c([S+]([O-])C(F)(F)F)c(C#N)nn2-c2c(Cl)cc(C(F)(F)F)cc21 (stereo not shown) [Compound C32],95
3,CNC(=O)C1(CC(=O)OC)Nc2c([S+]([O-])C(F)(F)F)c(C#N)nn2-c2c(Cl)cc(C(F)(F)F)cc21 (stereo not shown) [Compound C35],100
4,N#Cc1nn2c(c1[S+]([O-])C(F)(F)F)NC(CC(=O)O)(C(=O)O)c1cc(C(F)(F)F)cc(Cl)c1-2 (stereo not shown) [Compound C36],100
5,COC(=O)CC1(C(=O)OC)Nc2c([S+]([O-])C(F)(F)F)c(C#N)nn2-c2c(Cl)cc(C(F)(F)F)cc21 (stereo not shown) [Compound C37],100
6,N#Cc1nn2c(c1[S+]([O-])C(F)(F)F)NC(CC(N)=O)(C(N)=O)c1cc(C(F)(F)F)cc(Cl)c1-2 (stereo not shown) [Compound C38],100
7,COC(=O)CC1(C(=O)OC)c2cc(C(F)(F)F)cc(Cl)c2-n2nc(C#N)c([S+]([O-])C(F)(F)F)c2N1C(C)=O (stereo not shown) [Compound C40],100

# Tested on: Apis cernan
# Assay: Toxicity test on adult worker bees of Apis cernan, small beaker method
# Assay type: in vivo
# Conditions: 500 ppm, 48 hours
# Summary of the method: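 Same-size adult Apis cernan workers, collected the test morning, exposed in groups of 15 to cotton soaked with 500 ppm test liquid (small beaker method). Kept sealed in a dark climate box; live and dead bees counted after 48 h.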
row,Structure (SMILES),Toxicity determination Apis cernan Mortality (%)
1,COC(=O)C1(CC#N)Nc2c([S+]([O-])C(F)(F)F)c(C#N)nn2-c2c(Cl)cc(C(F)(F)F)cc21 (stereo not shown) [Compound C31],8
2,N#CCC1(C(N)=O)Nc2c([S+]([O-])C(F)(F)F)c(C#N)nn2-c2c(Cl)cc(C(F)(F)F)cc21 (stereo not shown) [Compound C32],9
3,CNC(=O)C1(CC(=O)OC)Nc2c([S+]([O-])C(F)(F)F)c(C#N)nn2-c2c(Cl)cc(C(F)(F)F)cc21 (stereo not shown) [Compound C35],4
4,N#Cc1nn2c(c1[S+]([O-])C(F)(F)F)NC(CC(=O)O)(C(=O)O)c1cc(C(F)(F)F)cc(Cl)c1-2 (stereo not shown) [Compound C36],3
5,COC(=O)CC1(C(=O)OC)Nc2c([S+]([O-])C(F)(F)F)c(C#N)nn2-c2c(Cl)cc(C(F)(F)F)cc21 (stereo not shown) [Compound C37],8
6,N#Cc1nn2c(c1[S+]([O-])C(F)(F)F)NC(CC(N)=O)(C(N)=O)c1cc(C(F)(F)F)cc(Cl)c1-2 (stereo not shown) [Compound C38],0
7,COC(=O)CC1(C(=O)OC)c2cc(C(F)(F)F)cc(Cl)c2-n2nc(C#N)c([S+]([O-])C(F)(F)F)c2N1C(C)=O (stereo not shown) [Compound C40],4

# Tested on: Solenopsis invicta
# Assay: whole plant or invertebrate
# Assay type: in vivo
# Conditions: Solenopsis invicta, 24 h, read-out: Solenopsis invicta Mortality (%) 100 ppm 24 h, 100 ppm; 24 h; water test tube poison-feeding
# Summary of the method: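 Mortality (%) of Solenopsis invicta, computed against live counts in control tubes, was recorded 24 h and 72 h after treatment at 25 °C. Compound was offered by oral feeding in test tubes at 100 ppm, diluted from a 10 g/L DMSO stock into water with 5% honey and 0.05% Tween-80.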
row,Structure (SMILES),mortality at 100 ppm [%]
1,COC(=O)C1(CC#N)Nc2c([S+]([O-])C(F)(F)F)c(C#N)nn2-c2c(Cl)cc(C(F)(F)F)cc21 (stereo not shown) [Compound C31],34
2,N#CCC1(C(N)=O)Nc2c([S+]([O-])C(F)(F)F)c(C#N)nn2-c2c(Cl)cc(C(F)(F)F)cc21 (stereo not shown) [Compound C32],25
3,CNC(=O)C1(CC(=O)OC)Nc2c([S+]([O-])C(F)(F)F)c(C#N)nn2-c2c(Cl)cc(C(F)(F)F)cc21 (stereo not shown) [Compound C35],38
4,N#Cc1nn2c(c1[S+]([O-])C(F)(F)F)NC(CC(=O)O)(C(=O)O)c1cc(C(F)(F)F)cc(Cl)c1-2 (stereo not shown) [Compound C36],10
5,COC(=O)CC1(C(=O)OC)Nc2c([S+]([O-])C(F)(F)F)c(C#N)nn2-c2c(Cl)cc(C(F)(F)F)cc21 (stereo not shown) [Compound C37],20
6,N#Cc1nn2c(c1[S+]([O-])C(F)(F)F)NC(CC(N)=O)(C(N)=O)c1cc(C(F)(F)F)cc(Cl)c1-2 (stereo not shown) [Compound C38],25
7,COC(=O)CC1(C(=O)OC)c2cc(C(F)(F)F)cc(Cl)c2-n2nc(C#N)c([S+]([O-])C(F)(F)F)c2N1C(C)=O (stereo not shown) [Compound C40],28

# Same assay, conditions: Solenopsis invicta, 72 h, read-out: Solenopsis invicta Mortality (%) 100 ppm 72 h, 100 ppm; 72 h; water test tube poison-feeding
row,Structure (SMILES),mortality at 100 ppm [%]
1,COC(=O)C1(CC#N)Nc2c([S+]([O-])C(F)(F)F)c(C#N)nn2-c2c(Cl)cc(C(F)(F)F)cc21 (stereo not shown) [Compound C31],100
2,N#CCC1(C(N)=O)Nc2c([S+]([O-])C(F)(F)F)c(C#N)nn2-c2c(Cl)cc(C(F)(F)F)cc21 (stereo not shown) [Compound C32],100
3,CNC(=O)C1(CC(=O)OC)Nc2c([S+]([O-])C(F)(F)F)c(C#N)nn2-c2c(Cl)cc(C(F)(F)F)cc21 (stereo not shown) [Compound C35],100
4,N#Cc1nn2c(c1[S+]([O-])C(F)(F)F)NC(CC(=O)O)(C(=O)O)c1cc(C(F)(F)F)cc(Cl)c1-2 (stereo not shown) [Compound C36],90
5,COC(=O)CC1(C(=O)OC)Nc2c([S+]([O-])C(F)(F)F)c(C#N)nn2-c2c(Cl)cc(C(F)(F)F)cc21 (stereo not shown) [Compound C37],100
6,N#Cc1nn2c(c1[S+]([O-])C(F)(F)F)NC(CC(N)=O)(C(N)=O)c1cc(C(F)(F)F)cc(Cl)c1-2 (stereo not shown) [Compound C38],90
7,COC(=O)CC1(C(=O)OC)c2cc(C(F)(F)F)cc(Cl)c2-n2nc(C#N)c([S+]([O-])C(F)(F)F)c2N1C(C)=O (stereo not shown) [Compound C40],90
